Laboratory results published in US6506734B1, “20(S) camptothecin glycoconjugates” (Bayer Aktiengesellschaft, priority 1997, dated 2003).
“And” between values parts separate entries of the source, which are not always exact repeats. Equal entries are not always repeated. Structures can show the parent of a compound that is named as a salt. Where two headings read alike, the source gives them in different places.

Key:
B16F10 = assay: Growth inhibition test (MTT) for cytotoxic properties, B16F10; conditions: read-out: IC50/nM B16F10
Method: (§1) The human large intestine cell lines SW 480 and HT 29 (ATCC No. CCL 228 and HBT 38) and the mouse melanoma cell line B16F10 (CRL 6475) were grown in Roux dishes in RPMI 1640 medium with addition of 10% FCS. They were then trypsinized and taken up in RPMI plus 10% FCS to a cell count of 50,000 cells/ml for SW 480 and HT 29 and 20,000 cells for B16F10. 100 μl of cell suspension/well were added to a 96 microwell plate and incubated for 1 day at 37° C. in a CO2 incubator. A further 100 μl of RPMI medium and 1 μl of DMSO containing the test substances were then added. The growth was checked after day 6. To do this, 25 μl of MTT solution (3-(4,5-dimethylthiazol-2-yl)-2,5-diphenyltetrazolium bromide) having a starting concentration of 5 mg/ml of H2O were added to each microwell. Incubation was carried out for 5 hours in a CO2 incubator at 37° C. The medium was then aspirated and 100 μl of i-propanol/well were added. After shaking for 30 min with 100 μl of H2O, the extinction was measured at 595 nm using a multiplate reader (Bio.) 3550 UV.

[1] = system: large-cell human lung tumour xenograft LXFL 529; assay: In vivo inhibition of tumour growth in the nude mouse model; conditions: for Survival time: LXFL 529 nude mice, individual animals; for therapeutic efficacy (tumour remission): maximum tolerable dose (MTD) and ½ MTD, LXFL 529
Method: For all in vivo experiments for investigation of the inhibition of tumour growth, athymic nude mice (NMRI nu/nu strain) were used. The selected large-cell lung carcinoma LXFL 529 was grown by serial passage in nude mice. The human origin of the tumour was confirmed by isoenzymatic and immunohistochemical methods.
The tumour was implanted subcutaneously into both flanks of small nu/nu nude mice 6 to 8 weeks old. […] The mice were assigned to the treatment group and the control group (5 mice per group with 8-10 assessable tumours) by randomization.
The size of the tumours was measured in two dimensions by means of a slide gauge. The tumour volume, which correlated well with the cell count, was then used for all evaluations. The volume was calculated according to the formula “length×breadth×breadth/2” ([a×b^2]/2, a and b represent two diameters at right angles).
The values of the relative tumour volume (RTV) were calculated for each individual tumour by dividing the tumour size on day X with the tumour size on day 0 (at the time of randomization). The mean values of the RTV were then used for the further evaluation.
The inhibition of the tumour volume (relative tumour volume of the test group/control group×100, T/C in %) was the final measured value.
The administration of the compounds was carried out intravenously (i.v.), for example on day 0, 1 and 2 after randomization, the total dose per day being split over 2 administrations.

HT 29 = assay: Growth inhibition test (MTT) for cytotoxic properties, HT 29; conditions: read-out: IC50/nM HT 29
Method: as §1

SW 480 = assay: Growth inhibition test (MTT) for cytotoxic properties, SW 480; conditions: read-out: IC50/nM SW 480
Method: as §1

[2] = system: mouse bone marrow stem cells; assay: Inhibition of the CSF-induced proliferation of mouse bone marrow stem cells; conditions: recombinant murine GM-CSF, 7 days, colony count
Method: Bone marrow cells were washed out of mice femurs. 10^5 cells were incubated at 37° C. and 7% CO2 in McCoy 5A medium (0.3% agar) together with recombinant murine GM-CSF (Genzyme; stem cell colony formation) and the substances (10^−4 to 100 μg/ml). 7 days later, the colonies (<50 cells) and clusters (17-50 cells) were counted.

[3] = 16 mg/kg/day i.v., LXFL 529, optimum on day 28
[4] = B16F10 cells, MTT, growth checked after day 6
[5] = HT 29 cells, MTT, growth checked after day 6
[6] = SW 480 cells, MTT, growth checked after day 6

Compound: CCC1(OC(=O)C(NC(=O)[C@H](Cc2c[nH]cn2)NC(=S)Nc2ccc(OC3OC(C)C(O)C(OC)C3O)cc2)C(C)C)C(=O)OCc2c1cc1n(c2=O)Cc2cc3ccccc3nc2-1.Cl (stereo partly drawn) [Example 2, 20(S)-20-O-{N-[O-(3-O-Methyl-β-L-fucopyranosyl)-4-hydroxy-phenylamino-thiocarbonyl]-L-histidyl-L/D-valyl}-camptothecin, hydrochloride]
- IC50 (B16F10; Mus musculus, B16-F10, 144 h): 300 nM
- opt. T/C [1, 3]: 3.3%
- Survival time ([1]; 16 mg/kg/day i.v.): >28 days
- Relative body weight on day 7 [% of day 0] ([1]; 16 mg/kg/day i.v.): 103 % of day 0
- opt. T/C ([1]; 32 mg/kg/day i.v., LXFL 529, optimum on day 21): 0%
- Survival time ([1]; 32 mg/kg/day i.v., hydrochloride): >28 days (3×) and 20 days and 1 days
- Relative body weight on day 7 [% of day 0] ([1]; 32 mg/kg/day i.v.): 98 % of day 0
- therapeutic efficacy (tumour remission) [1]: complete to marked tumour remission
- IC50 (HT 29; Homo sapiens, HT-29, 144 h): 40 nM
- IC50 (SW 480; Homo sapiens, SW480, 144 h): 100 nM

Compound: CC[C@@]1(OC(=O)[C@@H](CC(C)C)NC(=O)[C@H](CCCN)NC(=S)Nc2ccc(OC3O[C@@H](C)[C@@H](O)[C@@H](OC)[C@@H]3O)cc2)C(=O)OCc2c1cc1n(c2=O)Cc2cc3ccccc3nc2-1 (stereo partly drawn) [Example 4, 20(S)-20-O-{N^α-[O-(3-O-Methyl-β-L-fucopyranosyl)-4-hydroxy-phenylamino-thiocarbonyl]-L-ornithyl-D-leucyl}-camptothecin, hydrochloride]
- IC50 (B16F10; Mus musculus, B16-F10, 144 h): 500 nM
- IC50 (HT 29; Homo sapiens, HT-29, 144 h): 20 nM
- IC50 (SW 480; Homo sapiens, SW480, 144 h): 100 nM

Compound: CC[C@@]1(OC(=O)[C@@H](NC(=O)[C@H](Cc2cnc[nH]2)NC(=S)Nc2ccc(O[C@H]3O[C@@H](C)[C@@H](O)[C@@H](OC)[C@@H]3O)cc2)C(C)C)C(=O)OCc2c1cc1n(c2=O)Cc2cc3ccccc3nc2-1.Cl [Example 9, 20(S)-20-O-{N^α-[O-(3-O-Methyl-β-L-fucopyranosyl)-4-hydroxy-phenylamino-thiocarbonyl]-L-histidyl-L-valyl}-camptothecin, hydrochloride]
- IC50 (B16F10; [4]): 400 nM
- Inhibition of the CSF-induced proliferation of mouse bone marrow stem cells IC50 [2]: 15 ng/mL
- IC50 (HT 29; [5]): 70 nM
- IC50 (SW 480; [6]): 200 nM

Compound: CC[C@@]1(OC(=O)[C@@H](NC(=O)[C@H](CCCCN)NC(=S)Nc2ccc(OC3O[C@@H](C)[C@@H](O)[C@@H](OC)[C@@H]3O)cc2)C(C)C)C(=O)OCc2c1cc1n(c2=O)Cc2cc3ccccc3nc2-1 (stereo partly drawn) [Example 8, 20(S)-20-O-{N^α-[-(3-O-Methyl-β-L-fucopyranosyl)-4-hydroxy-phenylamino-thiocarbonyl]-L-lysyl-L-valyl}-camptothecin, hydrochloride]
- IC50 (B16F10; Mus musculus, B16-F10, 144 h): 800 nM
- IC50 (HT 29; Homo sapiens, HT-29, 144 h): 100 nM
- IC50 (SW 480; Homo sapiens, SW480, 144 h): 200 nM

Compound: CC[C@@]1(OC(=O)[C@H](CC(C)C)NC(=O)[C@H](CCCNC(=N)N)NC(=S)Nc2ccc(OC3O[C@@H](C)[C@@H](O)[C@@H](OC)[C@@H]3O)cc2)C(=O)OCc2c1cc1n(c2=O)Cc2cc3ccccc3nc2-1 (stereo partly drawn) [Example 10, 20(S)-20-O-{N^α-[O-(3-O-Methyl-β-L-fucopyranosyl)-4-hydrdxy-phenylamino-thiocarbonyl]-L-arginyl-L-leucyl}-camptothecin]
- IC50 (B16F10; Mus musculus, B16-F10, 144 h): 300 nM
- IC50 (HT 29; Homo sapiens, HT-29, 144 h): 50 nM
- IC50 (SW 480; Homo sapiens, SW480, 144 h): 100 nM

Compound: CC[C@@]1(OC(=O)[C@@H](CC(C)C)NC(=O)[C@@H](CCCCN)NC(=S)Nc2ccc(OC3O[C@@H](C)[C@@H](O)[C@@H](OC)[C@@H]3O)cc2)C(=O)OCc2c1cc1n(c2=O)Cc2cc3ccccc3nc2-1 (stereo partly drawn) [Example 3, 20(S)-20-O-{N^α-[O-(3-O-Methyl-β-L-fucopyranosyl)-4-hydroxy-phenylamino-thiocarbonyl]-D-lysyl-D-leucyl}-camptothecin, hydrochloride]
- IC50 (B16F10; Mus musculus, B16-F10, 144 h): 500 nM
- IC50 (HT 29; Homo sapiens, HT-29, 144 h): 20 nM
- IC50 (SW 480; Homo sapiens, SW480, 144 h): 100 nM

Compound: CC[C@@]1(OC(=O)[C@H](CC(C)C)NC(=O)[C@H](CCCCN)NC(=S)Nc2ccc(OC3O[C@@H](C)[C@@H](O)[C@@H](OC)[C@@H]3O)cc2)C(=O)OCc2c1cc1n(c2=O)Cc2cc3ccccc3nc2-1 (stereo partly drawn) [Example 7, 20(S)-20-O-{N^α-O-(3-O-Methyl-β-L-fucopyranosyl)-4-hydroxy-phenylamino-thiocarbonyl]-L-lysyl-L-leucyl}-camptothecin, hydrochloride]
- IC50 (B16F10; Mus musculus, B16-F10, 144 h): 20 nM
- IC50 (HT 29; Homo sapiens, HT-29, 144 h): 30 nM
- IC50 (SW 480; Homo sapiens, SW480, 144 h): 80 nM

Compound: CC[C@@]1(OC(=O)[C@@H](CC(C)C)NC(=O)[C@H](CCCCN)NC(=S)Nc2ccc(OC3O[C@@H](C)[C@@H](O)[C@@H](OC)[C@@H]3O)cc2)C(=O)OCc2c1cc1n(c2=O)Cc2cc3ccccc3nc2-1 (stereo partly drawn) [Example 6, 20(S)-20-O-{N^α-[O-(3-O-Methyl-β-L-fuopyranosyl)-4-hydroxy-phenylamino-thiocarbonyl]-L-lysyl-D-leucyl}-camptothecin, hydrochloride]
- IC50 (B16F10; Mus musculus, B16-F10, 144 h): 300 nM
- IC50 (HT 29; Homo sapiens, HT-29, 144 h): 30 nM
- IC50 (SW 480; Homo sapiens, SW480, 144 h): 60 nM

Compound: CC[C@@]1(OC(=O)[C@@H](CC(C)C)NC(=O)[C@H](CCCNC(=N)N)NC(=S)Nc2ccc(OC3O[C@@H](C)[C@@H](O)[C@@H](OC)[C@@H]3O)cc2)C(=O)OCc2c1cc1n(c2=O)Cc2cc3ccccc3nc2-1 (stereo partly drawn) [Example 5, 20(S)-20-O-{N^α-[O-(3-O-Methyl-β-L-fucopyranosyl)-4-hydroxy-phenylamino-thiocarbonyl]-L-arginyl-D-leucyl}-camptothecin]
- IC50 (B16F10; Mus musculus, B16-F10, 144 h): 200 nM
- IC50 (HT 29; Homo sapiens, HT-29, 144 h): 50 nM
- IC50 (SW 480; Homo sapiens, SW480, 144 h): 80 nM

Compound: CC[C@@]1(OC(=O)C(CC(C)C)NC(=O)[C@H](CCCCN)NC(=S)Nc2ccc(OC3O[C@@H](C)[C@@H](O)[C@@H](OC)[C@@H]3O)cc2)C(=O)OCc2c1cc1n(c2=O)Cc2cc3ccccc3nc2-1 (stereo partly drawn) [Example 1, 20(S)-20-O-{N^α-[O-(3-O-Methyl-β-L-fucopyranosyl)-4-hydroxy-phenylamino-thiocarbonyl]-L-lysyl-L/D-leucyl}-camptothecin, hydrochloride]
- IC50 (B16F10; Mus musculus, B16-F10, 144 h): 200 nM
- opt. T/C ([1]; 8 mg/kg/day i.v., LXFL 529, optimum on day 14): 0%
- Survival time ([1]; 8 mg/kg/day i.v., hydrochloride): 0 days and >28 days (4×)
- Relative body weight on day 7 [% of day 0] ([1]; 8 mg/kg/day i.v.): 95 % of day 0
- opt. T/C [1, 3]: 0%
- Survival time ([1]; 16 mg/kg/day i.v.): >28 days
- Relative body weight on day 7 [% of day 0] ([1]; 16 mg/kg/day i.v.): 95 % of day 0
- tumour remission (FIG. 1) ([1]; dose range from 16 to 8 mg/kg, therapy schedule day 1-3 i.v., further experiment): long-lasting complete remission
- therapeutic efficacy (tumour remission) [1]: complete to marked tumour remission
- IC50 (HT 29; Homo sapiens, HT-29, 144 h): 40 nM
- IC50 (SW 480; Homo sapiens, SW480, 144 h): 70 nM

Compound: CC[C@@]1(O)C(=O)OCc2c1cc1n(c2=O)Cc2cc3ccccc3nc2-1 [20(S)-Camptothecin, reference compound]
- IC50 (B16F10; [4]): 20 nM
- Inhibition of the CSF-induced proliferation of mouse bone marrow stem cells IC50 [2]: 0.05 ng/mL
- IC50 (HT 29; [5]): 5 nM
- IC50 (SW 480; [6]): 10 nM
